# Measured values taken from patent US7189751B2, “Oxa(thia)zolidine compounds, process for preparation thereof and anti-inflammatory agents” (Nippon Soda Co., Ltd., priority 2001, dated 2007).
# How the values were obtained:
# [1] = tested on: Mouse Delayed Contact Dermatitis Induced by Picryl Chloride; assay: Mouse delayed contact dermatitis induced by picryl chloride; type: in vivo
# [2] = tested on: Mouse Delayed Contact Dermatitis Induced by Picryl Chloride; assay: as above; type: in vivo; remark: listed apart in the source
# Procedure: Pharmacological Test Example 3 Mouse Delayed Contact Dermatitis Induced by Picryl Chloride
# This pharmacological test was carried out referring to the method of Asherson, G. L. & Ptak, W. (Immunology, 15: 405–416 (1968).) and the method of Jun Hiroi (Folia Pharmacology of Japan, 86: 233–239 (1985).). More specifically, hairs on the abdomen of an ICR-strain male mouse were removed using an electric clipper and an electric shaver. Then, 0.1 mL of 7% ether solution of picryl chloride (Tokyo Kasei Kogyo Co., Ltd., C 0307) was applied onto the abdomen for sensitization. On the sixth day after the sensitization, 20 μL/ear of 1% olive oil solution of picryl chloride was topically applied to the anterior and posterior surfaces of both ears of the mouse to induce contact dermatitis (first induction). Before and 24 hours after the induction, the thicknesses of the particular parts on the both ears were measured three times, respectively, using a digimatic micrometer (Mitsutoyo Co., Ltd.) to work out the average values. Ear edema of the both ears was respectively determined by subtracting the average thickness of the each ear before the induction from that on 24 hours after the induction, so that a grouping was carried out to separate the appropriate individuals. On the fourth day after the first induction, the hairs on the abdomen were removed again, and 0.1 mL of 7% ethanol solution of picryl chloride was applied thereto for additional sensitization. The contact dermatitis for evaluating activity was induced by re-applying 20 μL/ear of 1% olive oil solution of picryl chloride to the anterior and posterior surfaces of both ears (second induction) on the seventh day after the additional sensitization (on the […] after the first sensitization). The activity of each compound of the present invention was evaluated as the inhibition on the contact dermatitis as compared with that of the vehicle applied control. That is, the thicknesses of the particular portions of the both ears were measured respectively three times with a digimatic micrometer to work out the mean values before, 24 hours and 48 hours after the second induction. Ear swelling was determined by subtracting the ear thickness before the second induction from that on 24 hours and 48 hours after the second induction, respectively. Topical application activity was evaluated by applying 25 μL of the acetone solution of the compound of the present invention similarly to the anterior and posterior surfaces of the right ear one hour before and 16 hours after the second induction. As the positive control, 0.02 mg/20 μL of acetone solution of Dexamethasone (hereinafter referred to as DEX, Wako Pure Chemical Industries Ltd., 047-18863) was applied similarly as for the compound of the present invention. With respect to the inhibitory activity in topical application tests, the topical activity was determined by the inhibition of the applied right ear edema, and the translocation and distribution property was determined by the activity onto the swelling of non-treated left ear. Oral administration activity was evaluated by administrating 0.5% methyl cellulose suspension of the compound of the present invention forcibly and perorally to the mouse an hour before and 16 hours after the second induction. As the positive control, 20 mg/kg of Prednisolone (Sigma Chemical Co., P 6004) suspension was administrated similarly as for the compounds of the present invention. […] As the examples, the body weight changes in the mice for 48 hours after the second induction when they were administrated with the compounds shown in Table 5 are shown in Table 6.
compound,measurement,setting,value
"C[C@@H]1C[C@H]2[C@@H]3CCC4=CC(=O)C=C[C@]4(C)[C@@]3(F)[C@@H](O)C[C@]2(C)[C@@]1(O)C(=O)CO [DEX, Dexamethasone]","Ear swelling after 24 hours, Right (Applied) (Mean ± S.E., mm)","[1]; topical 0.02 mg/25 μL/ear × 2, vehicle control 0.299 ± 0.006",0.057 ± 0.009 mm
same,"Ear swelling after 24 hours, Left (Not applied) (Mean ± S.E., mm)","[1]; topical 0.02 mg/25 μL/ear × 2 on right ear, vehicle control 0.284 ± 0.008",−0.005 ± 0.033 mm
same,Change in body weight 48 hours after induction (Mean ± S.E.),"[2]; 0.02 mg/ear × 2, vehicle control −0.45 ± 0.20",-1.42 ± 0.20 g
same,Change in body weight 48 hours after induction (Mean ± S.E.) (%),"[2]; 0.02 mg/ear × 2, vehicle control −1.29 ± 0.59",−4.30 ± 0.59%
same,intoxicated symptoms,[2]; mice of the picryl chloride dermatitis test,showed intoxicated symptoms
same,body weight 48 hours after the second induction,"[2]; mice of the picryl chloride dermatitis test, 48 hours after the second induction",reduced significantly
